One assay relates to spleen cells. As to the kind of experiment: Cytokine levels in culture supernatants of spleen cells from MCMV-infected mice (ELISA). Format: in vivo. The conditions noted are these: BALB/c mice with MCMV infection, GCV compared with Thymosin alpha 1. The text has this: Arrow indicates an inducible band. Lane 1, uninfected cells; lane 2, MCMV-infected; lane 3, Thymosin alpha 1 treated; lane 4, MCMV+Thymosin alpha 1 treated. (FIG. 3b) Cytokine production (pg/ml) by DC subsets treated as above. Bars indicate the standard errors. *P<0.05, cytokine production in MCMV-infected DC vs uninfected DC. **P<0.05, Thymosin alpha 1-treated vs untreated DC. (FIG. 3c) Cytokine production in mice during MCMV infection. Cytokine levels (pg/ml) in culture supernatants of spleen cells from mice with MCMV infection and treated for a week with Thymosin alpha 1 or GCV. *P<0.05, treated vs untreated mice. ND, not done.
Viral load (FIG. 4a) and cytokine production (FIG. 4b) in C57BL6, TLR4−/−, TLR9−/− and MyD88−/− mice infected with 5×10^5 PFU of MCMV and treated with 200 μg/kg Tα1 for a week. Virus titers, expressed as log 10, were quantified on MEF cells by standard plaque assay on infected tissues removed a week after infection and treatment. Cytokine (pg/ml) levels in culture supernatants of spleen cells were determined by ELISA assay. Bars indicate the standard errors. *P<0.05, Tα1-treated vs untreated mice. Results are representative of 3 independent experiments.
(§1) BALB/c or C57BL6 mice were infected with 10^5 or 5×10^5 PFU of MCMV, respectively. Virus titers, expressed as log 10, were quantified on MEF cells by standard plaque assay on lung tissues removed 7 days after the infection. Tα1 (200 μg/kg/daily for a week) and/or GCV (40 mg/kg, three times a week) were administered beginning the day of the infection. Cytokine (pg/ml) levels in culture supernatants of spleen cells (7 days) were determined by ELISA assay. Bars indicate the standard errors. *P<0.05, treated vs untreated mice. Results are representative of 3 independent experiments.
Quantification of cytokines by ELISA and ELISPOT assays. The levels of cytokines in the culture supernatants of mitogen-stimulated spleen cells (48 h stimulation with 10 μg/ml ConA) or MCMV-pulsed DC (24 h) were determined by ELISA (R&D Systems and PBL, Biomedical Lab, Milan, Italy). The detection limits (pg/ml) of the assays were <16 for IL-12 p70, <10 for IFN-., <3 for IL-10 and <10 for IFN-a. IFN-.-producing NK cells were enumerated by ELISPOT assay on purified NK (Virus Res. 2003; 98:17-467 25). Results are expressed as the mean number of cytokine-producing cells (±SE) per 10^5 cells, calculated using replicates of serial 2-fold dilutions of cells.
(In general: In an ELISA, binding on a coated surface is turned into a signal by an enzyme label.)

The next assay deals with MCMV. As to the kind of experiment: MCMV infection in mice, virus titers by standard plaque assay on tissues. Format: in vivo, BALB/c and C57BL6 mice. As for the experimental part:
BALB/c (FIG. 1a) and C57BL6 (FIG. 1b) mice were infected with 1×10^5 or 5×10^5 PFU of MCMV, respectively. Virus titers were quantified on MEF cells by standard plaque assay on tissues removed at different times (FIG. 1a) or a week after infection (FIG. 1b) and expressed as log 10(mean±standard errors, SE). Thymosin alpha 1 (200 μg/kg given for 7 or 14 days) and GCV (40 mg/kg given three times a week) were administered beginning the day of the infection. Controls received the scrambled peptide. Results are representative of 4 independent experiments. Bars indicate the standard errors. *P<0.05, viral load between treated and untreated mice.
as §1
Inbred C57BL6 and BALB/c mice were injected intraperitoneally (i.p.) with 1×10^5 (BALB/c) or 5×10^5 (C57BL6) plaque forming units (PFU) of MCMV. Virus titers were quantified on MEF cells by standard plaque assay on tissues removed a day after treatment. Treatments were as follow: Tα1 ([…]) and PTX3 (1 mg/k/ip) (SIGMA-Tau, Pomezia, Rome, Italy) were given daily for 7 consecutive days beginning the day of the infection. Controls received the scrambled peptide. All organs from uninfected animals were negative viruses. Virus titers are expressed as log 10 (mean±standard errors, SE).
Mice. Wild-type (WT) inbred C57BL6 and BALB/c mice, 8 to 12 weeks old, were purchased from Charles River Breeding Laboratories (Calco, Italy). Pairs of homozygous TLR9-(TLR9−/−), TLR4-(TLR4−/−), and MyD88-(MyD88−/−)-deficient mice (on the C57BL6 background), were bred under specific pathogen-free conditions at the breeding facilities of the University of Perugia, Perugia, Italy. Experiments were performed following protocols approved by the institutional animal committee and in accordance with European Economic Community Council Directive as well as institutional animal care and use guidelines.
Virus, infection and treatments. Stocks of Smith strain MCMV salivary gland extracts were prepared from BALB/c mice and titered in a standard plaque assay on BALB/c murine embryonic fibroblast (MEF) cells (J. Gen. Virol. 2002; 83:2983-2993). Mice were injected intraperitoneally (i.p.) with 1×10^5 (C57BL6) plaque forming units (PFU) of MCMV. Virus titers were quantified on MEF cells by standard plaque assay on tissues removed at different times. Treatments were as follows: Thymosin alpha 1 and the scrambled polypeptide (both from SciClone Pharmaceuticals, San Mateo, CA) were supplied as purified (the endotoxin levels were <0.03 pg/ml, by a standard limulus lysate assay) sterile, lyophilized, acetylated polypeptide. The sequences were as follows: Ac-Ser-Asp-Ala-Ala-Val-Asp-Thr-Ser-Ser-Glu -Ile-Thr-Thr-Lys-Asp-Leu-Lys-Glu-Lys-Lys-Glu-Val-Glu-Glu-Ala-Glu-Asn-O (Tα1) SEQ ID NO:1 and Ac-Ala-Lys-Ser-Asp-Val-Lys-Ala-Glu-Thr-Ser-Ser-Glu-Ile-Asp-Thr-Thr-Glu-Leu -Asp-Glu-Lys-Val-Glu-Val-Lys-Ala-Asn-Glu-OH (scrambled peptide) SEQ ID NO:2. The lyophilized powders were reconstituted in sterile water and 200 μg/kg/i.p. were given daily for 7 or 14 consecutive days beginning the day of the infection. Gancyclovir (GCV) (Cymevene; from Recordati, Milan, Italy) was administered at 40 mg/kg/i.p. three times a week, every other day, beginning 6 h after infection. Controls received the scrambled peptide or the diluent alone.
Plaque assay. Plaque assay was determined on cells grown to subconfluence and incubated with serially diluted virus samples for 2 h at 37° C. (10). […]

Turning to `Nc1nc(O)c2ncn(COC(CO)CO)c2n1` [GCV, Ganciclovir], in the assay with spleen cells, the “IFN-a, IFN-. and IL-12p70 production” value is reported as “comparable to those obtained with GCV”.
In the case of “Ac-Ala-Lys-Ser-Asp-Val-Lys-Ala-Glu-Thr-Ser-Ser-Glu-Ile-Asp-Thr-Thr-Glu-Leu -Asp-Glu-Lys-Val-Glu-Val-Lys-Ala-Asn-Glu-OH (Ac-AKSDVKAETSSEIDTTELDEKVEVKANE-OH) [scrambled peptide]”, the “viral load in different visceral organs” value with MCMV (200 μg/kg for 7 days, both susceptible (BALB/c) and resistant (C57BL6) mice) was “not”.
As to “PTX3: long pentraxin protein with N-terminal domain and C-terminal domain similar to short pentraxins; from SIGMA-Tau”, the “viral titers in the lung” value in the assay with MCMV (PTX3 alone, 1 mg/k/ip daily for 7 days, BALB/c or C57BL6 mice) was “decreased the viral titers”.

Source of the values: patent US8337828B2, “Use of thymosin alpha 1, alone or in combination with PTX3 or ganciclovir, for the treatment of cytomegalovirus infection” (priority 2006, dated 2012).
